This is an account of results in patent US8273754B2, “Substituted 1H-pyrazolo[3,4-D]pyrimidine-6-amine compounds” (ArQule, Inc., priority 2008, dated 2012).

Where two headings read alike, the source gives them in different places.

One series concerns cancer cells. The series is described as follows: MTS cell growth inhibition assay (72 hours). Type of series: cell-based. In short, it runs like this: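 Growth inhibition read as formazan absorbance at 492 nm after 4 h MTS/PMS, following 72 h compound exposure at 37 °C in 1% FBS DMEM (cells pre-seeded 18 h). IC50 = 50% absorbance reduction; inhibition graded in bands.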
The next series has as its target T1, FGFR2 (N549H) (Homo sapiens, UniProt P21802, N549H).
T1 construct: purchased Millipore 14-742
Kind of series: fluorescent ELISA assay for inhibitors of FGFR2 kinase. Type of series: biochemical. The conditions noted are these: Pyk2 peptide substrate, 60 minutes. The procedure: The enzymatic assays described herein are conducted according to the following procedures from commercially available reagents. In one non-limiting example, a fluorescent ELISA assay is used to identify and characterize inhibitors of FGFR2 kinase as described herein. This heterogeneous assay utilizes a biotinylated peptide with a tyrosine motif as a substrate and an anti-phospho-tyrosine antibody to measure phosphorylation of the substrate. The reaction is initiated by adding the test compound, 37 μM Pyk2 substrate (Midwest Biotech, Cat. #MBT2383), 12.5 μM ATP (Roche, Cat. #11 140 965 001) and 0.5 μM FGFR2 enzyme (Millipore, Cat. #14-742) sequentially to a non-binding polypropylene V-well plate. All reagents are in an assay buffer consisting of: 50 mM Tris-HCL, 0.02 mg/ml BSA, 10 mM MgCl2, 0.1 mM Na3VO4, 1 mM EGTA, 75 μM ATP, 0.01% NP-40, 2 mM DTT and 10% glycerol. The reaction is incubated for 60 minutes. As the reaction proceeds, FGFR2 phosphorylates tyrosines in the peptide. The reaction mixture is then moved to a blocked streptavidin-coated Nunc Maxisorb plate (coated with 100 ng streptavidin from Pierce (Cat. #15-124) per well), allowing for the capture of the biotinylated peptide. Peptides are captured for 30 minutes at room temperature, the phosphorylation of peptides continues during this phase. The reaction is stopped by washing the streptavidin-coated plate 6 times with TBST. Phosphorylated peptide is detected by adding anti-phospho-tyrosine antibody (Cell Signaling, Cat. #9411, diluted 1:3000) to the streptavidin-coated plate. Unbound anti-phospho-tyrosine antibody is removed by washing the streptavidin-coated plate 6 times with TBST. Secondary detection is performed using alkaline phosphatase tagged goat anti-mouse antibody (Pierce, Cat. #31320, diluted 1:4000) for one hour. Unbound secondary antibody is removed by washing the streptavidin-coated plate 6 times with TBST. The fluorescent readout is initiated by adding to the streptavidin-coated plate Promega Attophos substrate (Promega, Cat. #S1000, dilution=6 mg/10 ml), which, when dephosphorylated by alkaline phosphatase, emits a fluorescent signal of 595 nm in wavelength when excited by a signal of 400 nm in wavelength. The reading of the 595 nm signal is done on the Perkin Elmer Envision system. Compounds which prevent FGFR2 from phosphorylating the peptide result in a lower fluorescent signal. The 595 nm fluorescent signal is directly proportional to the activity of FGFR2. Thus, the inhibition of FGFR2 by compounds is monitored by the decrease in the 595 nm fluorescent signal.

Setting [1] is: Homo sapiens, DLD-1, 72 h, DLD-1 cells, read-out: DLD-1 MTS 72 hr at 10 μM.
[2] abbreviates: Homo sapiens, KATO III, 72 h, KATO III cells, read-out: KATO III MTS 72 hr at 10 μM.
[3] abbreviates: Homo sapiens, MDA-MB-231, 72 h, MDA-MB-231 cells, read-out: MDA-MB-231 MTS 72 hr at 10 μM.
The mark [4] stands for this setting: Homo sapiens, NCI-H1299, 72 h, NCI-H1299 cells, read-out: NCI-H1299 MTS 72 hr at 10 μM.
The mark [5] stands for this setting: PaCa-2, 72 h, PACA-2 cells, read-out: PACA-2 MTS 72 hr at 10 μM.

T1 sequence (P21802 22-821 N549H): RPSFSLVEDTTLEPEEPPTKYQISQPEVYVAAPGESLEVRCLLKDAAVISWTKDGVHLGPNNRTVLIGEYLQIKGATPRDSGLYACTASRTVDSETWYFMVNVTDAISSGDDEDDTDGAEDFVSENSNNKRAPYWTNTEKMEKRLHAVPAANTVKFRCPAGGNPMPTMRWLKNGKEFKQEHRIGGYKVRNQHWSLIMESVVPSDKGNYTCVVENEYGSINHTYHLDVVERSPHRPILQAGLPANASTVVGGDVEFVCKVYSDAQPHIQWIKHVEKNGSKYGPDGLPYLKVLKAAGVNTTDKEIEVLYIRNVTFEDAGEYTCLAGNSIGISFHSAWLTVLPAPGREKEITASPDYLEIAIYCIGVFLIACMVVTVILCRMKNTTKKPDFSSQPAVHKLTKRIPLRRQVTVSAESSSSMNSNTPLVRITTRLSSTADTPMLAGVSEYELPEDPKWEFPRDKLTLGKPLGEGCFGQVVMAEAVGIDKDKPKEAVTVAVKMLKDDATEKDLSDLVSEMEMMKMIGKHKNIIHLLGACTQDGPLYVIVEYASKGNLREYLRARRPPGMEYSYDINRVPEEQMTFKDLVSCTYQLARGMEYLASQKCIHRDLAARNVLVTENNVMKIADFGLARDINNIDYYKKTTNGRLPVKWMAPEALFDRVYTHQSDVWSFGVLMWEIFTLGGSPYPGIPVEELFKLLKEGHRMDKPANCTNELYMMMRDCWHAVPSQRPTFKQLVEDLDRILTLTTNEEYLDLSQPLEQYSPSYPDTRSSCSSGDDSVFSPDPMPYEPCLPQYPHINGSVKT

Regarding `Nc1nc(NC2Cc3ccccc3N(Cc3ccc(F)cc3F)C2)c2cn[nH]c2n1` (stereo not shown) [Compound 1, N^4-(1-(2,4-difluorobenzyl)-1,2,3,4-tetrahydroquinolin-3-yl)-1H-pyrazolo[3,4-d]pyrimidine-4,6-diamine], the melting point – broadly, the temperature of the solid-liquid transition – lay within 110 to 114 °C. Further, the inhibition at 10 µM in the series with cancer cells (setting [1]) was greater than 79%. In addition, the inhibition at 10 µM in the series on cancer cells (setting [2]) was greater than 79%. Besides, in the series with cancer cells (setting [3]), the inhibition at 10 µM is less than 50%. Moreover, the inhibition at 10 µM with cancer cells (setting [4]) lay in the range of 50 to 79%. Also, in the series with cancer cells (setting [5]), the inhibition at 10 µM lay in the range of 50 to 79%. 1.81 µM corresponded to half-maximal inhibition at FGFR2 (N549H) (IC50).
As for `CC(C)c1ccc(S(=O)(=O)N2CC(Nc3nc(N)nc4[nH]ncc34)Cc3ccccc32)cc1` (stereo not shown) [Compound 56, N4-(1-(4-isopropylphenylsulfonyl)-1,2,3,4-tetrahydroquinolin-3-yl)-1H-pyrazolo[3,4-d]pyrimidine-4,6-diamine], the inhibition at 10 µM in the series with cancer cells (setting [1]), in the series on cancer cells (setting [2]), in the series on cancer cells (setting [3]), in the series with cancer cells (setting [4]) and in the series with cancer cells (setting [5]) was less than 50% throughout. The IC50 (commonly the concentration needed to halve the response being measured) at FGFR2 (N549H) was greater than 30 µM.
For `Nc1nc(NC2Cc3ccccc3N(S(=O)(=O)c3c(F)cccc3F)C2)c2cn[nH]c2n1` (stereo not shown) [Compound 58, N4-(1-(2,6-difluorophenylsulfonyl)-1,2,3,4-tetrahydroquinolin-3-yl)-1H-pyrazolo[3,4-d]pyrimidine-4,6-diamine], the inhibition at 10 µM in the series on cancer cells (setting [1]), in the series on cancer cells (setting [2]), with cancer cells (setting [3]), in the series on cancer cells (setting [4]) and with cancer cells (setting [5]) was less than 50% in each case. At FGFR2 (N549H), this compound showed a concentration for half-maximal inhibition (IC50) of 13 µM.
Regarding `COc1ccc(OC)c(CN2CC(Nc3nc(N)nc4[nH]ncc34)Cc3ccccc32)c1` (stereo not shown) [Compound 121, N4-(1-(2,5-dimethoxybenzyl)-1,2,3,4-tetrahydroquinolin-3-yl)-1H-pyrazolo[3,4-d]pyrimidine-4,6-diamine], the inhibition at 10 µM with cancer cells (setting [1]) was less than 50%; in the series on cancer cells (setting [2]), greater than 79%; with cancer cells (setting [3]), less than 50%; in the series on cancer cells (setting [4]), less than 50%; in the series on cancer cells (setting [5]), less than 50%. For the same compound, the IC50 against FGFR2 (N549H) is greater than 30 µM.
As for `Cc1cccc(CN2CC(Nc3nc(N)nc4[nH]ncc34)Cc3ccccc32)c1` (stereo not shown) [Compound 122, N4-[1-(3-methylbenzyl)-1,2,3,4-tetrahydroquinolin-3-yl]-1H-pyrazolo[3,4-d]pyrimidine-4,6-diamine], the inhibition at 10 µM in the series on cancer cells (setting [1]) is less than 50%; in the series with cancer cells (setting [2]) it was 50 to 79%; in the series on cancer cells (setting [3]) it was less than 50%; in the series on cancer cells (setting [4]), less than 50%; in the series on cancer cells (setting [5]), 50 to 79%. The compound also gave a half-inhibitory concentration (IC50) against FGFR2 (N549H) of 1.67 µM.
Take `COc1ccc(CN2CC(Nc3nc(N)nc4[nH]ncc34)Cc3ccccc32)cc1OC` (stereo not shown) [Compound 123, N4-[1-(3,4-dimethoxybenzyl)-1,2,3,4-tetrahydroquinolin-3-yl]-1H-pyrazolo[3,4-d]pyrimidine-4,6-diamine]: the inhibition at 10 µM with cancer cells (setting [1]), in the series with cancer cells (setting [2]), in the series on cancer cells (setting [3]), in the series with cancer cells (setting [4]) and in the series with cancer cells (setting [5]) was less than 50% each time. Further, the concentration for half-maximal inhibition (IC50) at FGFR2 (N549H) was greater than 30 µM.
Turning to `Nc1nc(NC2Cc3ccccc3N(Cc3ccccc3)C2)c2cn[nH]c2n1` (stereo not shown) [Compound 125, N4-(1-benzyl-1,2,3,4-tetrahydroquinolin-3-yl)-1H-pyrazolo[3,4-d]pyrimidine-4,6-diamine], the inhibition at 10 µM in the series with cancer cells (setting [1]), in the series on cancer cells (setting [2]), in the series on cancer cells (setting [3]), with cancer cells (setting [4]) and with cancer cells (setting [5]) was less than 50% in each case. The compound also had an IC50 against FGFR2 (N549H) of 17.2 µM.
In the case of `Nc1nc(NC2Cc3ccccc3N(Cc3cccc(Cl)c3)C2)c2cn[nH]c2n1` (stereo not shown) [Compound 126, N4-[1-(3-chlorobenzyl)-1,2,3,4-tetrahydroquinolin-3-yl]-1H-pyrazolo[3,4-d]pyrimidine-4,6-diamine], the inhibition at 10 µM is less than 50% with cancer cells (setting [1]); 50 to 79% with cancer cells (setting [2]); less than 50% with cancer cells (setting [3]); less than 50% with cancer cells (setting [4]); 50 to 79% in the series with cancer cells (setting [5]). 1.19 µM corresponded to half-maximal inhibition against FGFR2 (N549H) (IC50).
Take `COc1cccc(CN2CC(Nc3nc(N)nc4[nH]ncc34)Cc3ccccc32)c1` (stereo not shown) [Compound 127, N4-[1-(3-methoxybenzyl)-1,2,3,4-tetrahydroquinolin-3-yl]-1H-pyrazolo[3,4-d]pyrimidine-4,6-diamine]: the inhibition at 10 µM in the series on cancer cells (setting [1]) was less than 50%; in the series on cancer cells (setting [2]) it was 50 to 79%; in the series with cancer cells (setting [3]), less than 50%; in the series on cancer cells (setting [4]), less than 50%; with cancer cells (setting [5]), 50 to 79%. Also, half-maximal inhibition at FGFR2 (N549H) (IC50) required 11 µM.
Take `Nc1nc(NC2Cc3ccccc3N(Cc3cccc(F)c3)C2)c2cn[nH]c2n1` (stereo not shown) [Compound 128, N4-[1-(3-fluorobenzyl)-1,2,3,4-tetrahydroquinolin-3-yl]-1H-pyrazolo[3,4-d]pyrimidine-4,6-diamine]: the inhibition at 10 µM is less than 50% in the series on cancer cells (setting [1]); 50 to 79% in the series with cancer cells (setting [2]); less than 50% in the series on cancer cells (setting [3]); less than 50% in the series on cancer cells (setting [4]); 50 to 79% with cancer cells (setting [5]). The compound also displayed a 50% inhibitory concentration (IC50) on FGFR2 (N549H) of 2.23 µM.
Take `Cc1ccccc1CN1CC(Nc2nc(N)nc3[nH]ncc23)Cc2ccccc21` (stereo not shown) [Compound 129, N4-[1-(2-methylbenzyl)-1,2,3,4-tetrahydroquinolin-3-yl]-1H-pyrazolo[3,4-d]pyrimidine-4,6-diamine]: the inhibition at 10 µM in the series with cancer cells (setting [1]) was less than 50%; in the series with cancer cells (setting [2]) it was 50 to 79%; in the series on cancer cells (setting [3]), less than 50%; in the series on cancer cells (setting [4]), less than 50%; in the series with cancer cells (setting [5]) it was less than 50%. Also, the IC50 against FGFR2 (N549H) is 16.2 µM.
On to `CC(C)(C)c1ccc(CN2CC(Nc3nc(N)nc4[nH]ncc34)Cc3ccccc32)cc1` (stereo not shown) [Compound 131, N4-[1-(4-tert-butylbenzyl)-1,2,3,4-tetrahydroquinolin-3-yl]-1H-pyrazolo[3,4-d]pyrimidine-4,6-diamine], for which the inhibition at 10 µM with cancer cells (setting [1]), with cancer cells (setting [2]), in the series with cancer cells (setting [3]), in the series on cancer cells (setting [4]) and with cancer cells (setting [5]) was less than 50% in each case. The compound also displayed a concentration for half-maximal inhibition (IC50) against FGFR2 (N549H) greater than 30 µM.
Take `COc1ccccc1CN1CC(Nc2nc(N)nc3[nH]ncc23)Cc2ccccc21` (stereo not shown) [Compound 132, N4-[1-(2-methoxybenzyl)-1,2,3,4-tetrahydroquinolin-3-yl]-1H-pyrazolo[3,4-d]pyrimidine-4,6-diamine]: the inhibition at 10 µM in the series on cancer cells (setting [1]), in the series with cancer cells (setting [2]), with cancer cells (setting [3]), in the series with cancer cells (setting [4]) and in the series on cancer cells (setting [5]) was less than 50% in each case. This compound came in with an IC50 against FGFR2 (N549H) of 22.3 µM.
On to `Nc1nc(NC2Cc3ccccc3N(S(=O)(=O)c3ccc(NC(=O)Nc4ccc(Cl)c(C(F)(F)F)c4)cc3)C2)c2cn[nH]c2n1` (stereo not shown) [Compound 222, 1-(4-(3-(6-amino-1H-pyrazolo[3,4-d]pyrimidin-4-ylamino)-3,4-dihydroquinolin-1(2H)-ylsulfonyl)phenyl)-3-(4-chloro-3-(trifluromethyl)phenyl)urea], for which the inhibition at 10 µM in the series on cancer cells (setting [1]), in the series with cancer cells (setting [2]), with cancer cells (setting [3]), with cancer cells (setting [4]) and in the series on cancer cells (setting [5]) was greater than 79% each time. This compound returned an IC50 against FGFR2 (N549H) greater than 0.3 µM.
